From patent publication US10752598B2, “Aryldiazepine derivatives as RSV inhibitors” (Enanta Pharmaceuticals, Inc., priority 2017, dated 2020)
pEC50: −log10 of the molar value.

System: Human RSV-A (“Long” strain)
Assay: RSV-A in vitro cytoprotection (CPE) assay in HEp-2 cells, ATPlite readout
Assay type: cell-based
Conditions: human respiratory syncytial virus, 96 h, 4-day incubation, ATPlite cell viability
Source text: RSV is a single stranded negative sense RNA virus that causes respiratory tract infections which can be dangerous to infants, the elderly, and immunosuppressed individuals. Currently there is no vaccine, and therapeutic options are both costly and of limited effectiveness. These approved treatments are Ribavirin, and Palivizumab/Synagis (a monoclonal antibody). RSV has two genotypes, A and B, which differ primarily in the structure of the virus' surface “G” attachment protein. Our current primary screen focusses on RSV-A and uses an in vitro cytoprotection assay where compounds are added in 2-fold dilutions to cells which are then subjected to fully replicative viral particles. Cell viability is measured several days later along with separate measurements of compound cytotoxicity. This report focuses on the results of our most recent screening of compounds.
HEp-2 cells, (originally derived from tumors grown in irradiated-cortisonised weanling rats that had been injected with epidermoid carcinoma tissue from a person's larynx, but later found to be indistinguishable from HeLa cells by PCR DNA analysis), were used for the culturing of genotype A, “Long” strain RSV. Flasks were inoculated with RSV and viral stocks were collected once cytopathic effect (CPE) was greater than 90%. Viral stocks in 25% sucrose media were snap frozen using liquid nitrogen to increase viral stability. Viral stock titers were quantified by tissue culture infectious dose 50% (TCID50) using 8,000 cells per well and 3-fold viral dilutions across a 96-well plate, cultured for 4 days.
Following extensive parameter testing, the final assay is run as follows: HEp-2 cells are seeded into the inner 60 wells of a 96-well plate at 8,000 cells per well in a volume of […] Growth Media (DMEM without phenol red, 1% L-Glut, 1% Penn/Strep, 1% nonessential amino acids, 10% FBS). 2-fold serial dilutions of control and test compounds are added to the wells in duplicate in a total volume of 25 μL. Viral stock is then added to the wells in a volume of 25 μL, bringing the total volume of each well to 100 μL. Each 96-well plate has a control column of 6 wells with cells and virus but no compound (negative control, max CPE), a column with cells but no compound or virus (positive control, minimum CPE), and a column with no cells or virus or compound (background plate/reagent control). The control wells with cells but no virus are given an additional 25 uL of growth media containing an equal quantity of sucrose as those wells receiving the viral stock in order to keep consistent in media and volume conditions. The outer wells of the plate are filled with 125 μL of growth media to act as a thermal and evaporative moat around the test wells. Following a 4-day incubation period, the plates are read using ATPlite (50 uL added per well), which quantifies the amount of ATP (a measure of cell health) present in each well. Assay plates are read using the Envision luminometer. […] EC50 ranges are as follows: A<2 μM; B 2-5 μM; C>5 μM.

Row | Structure (SMILES) | pEC50
1 | O=C1Nc2ccccc2N(c2ccccc2)C[C@@H]1Nc1nnc(-c2ccccc2)o1 [Example 1, (S)-5-phenyl-3-((5-phenyl-1,3,4-oxadiazol-2-yl)amino)-1,3,4,5-tetrahydro-2H-benzo[b][1,4]diazepin-2-one] | < 5.30
2 | O=C1Nc2ccccc2N(c2ccccc2)C[C@@H]1Nc1nnc(-c2nc(-c3cccnc3)sc2N2CCOCC2)o1 [Example 16] | > 5.70
3 | O=C1Nc2ccccc2N(c2ccccc2)C[C@@H]1Nc1nc2ccccc2o1 [Example 2, (S)-3-(benzo[d]oxazol-2-ylamino)-5-phenyl-1,3,4,5-tetrahydro-2H-benzo[b][1,4]diazepin-2-one] | < 5.30
4 | O=C1Nc2ccccc2N(c2ccccc2)C[C@@H]1Nc1nnc(-c2cn(-c3ccccn3)nc2N2CCOCC2)o1 [Example 13] | 5.30 to 5.70
5 | O=C(NC1C(=O)Nc2ccccc2N(c2ccccc2)C1=O)c1ccccc1 (centres unmarked) [Example 21] | < 5.30
6 | O=C(Nc1ccccc1)N[C@H]1CN(c2ccccc2)c2ccccc2NC1=O [Example 3] | < 5.30
7 | O=C1Nc2ccccc2N(c2ccccc2)C[C@@H]1Nc1nnc(-c2ncc(C3CC3)cc2N2CCOCC2)o1 [Example 7] | > 5.70
8 | O=C1Nc2ccccc2N(c2cc(F)c(F)c(F)c2)C[C@@H]1Nc1nnc(-c2ncc(C(F)(F)F)cc2N2CCOCC2)o1 [Example 17] | < 5.30
9 | COCCNc1cc(C(F)(F)F)cnc1-c1nnc(N[C@H]2CN(c3ccccc3)c3ccccc3NC2=O)o1 [Example 8] | < 5.30
10 | O=C(Nc1ccccc1)NC1C(=O)Nc2ccccc2N(c2ccccc2)C1=O (centres unmarked) [Example 20] | < 5.30
11 | O=C1Nc2ccccc2N(c2ccccc2)C[C@@H]1Nc1nnc(-c2ncc(C(F)(F)F)cc2N2CCOCC2)o1 [Example 5, (S)-3-((5-(3-morpholino-5-(trifluoromethyl)pyridin-2-yl)-1,3,4-oxadiazol-2-yl)amino)-5-phenyl-1,3,4,5-tetrahydro-2H-benzo[b][1,4]diazepin-2-one] | > 5.70
12 | O=C1Nc2ccccc2N(c2ccccc2)C[C@@H]1Nc1nnc(-c2ccc(N3CCOCC3)cc2F)o1 [Example 12] | < 5.30
13 | O=C(N[C@H]1CN(c2ccccc2)c2ccccc2NC1=O)c1ccccc1 [Example 4, (S)—N-(4-oxo-1-phenyl-2,3,4,5-tetrahydro-1H-benzo[b][1,4]diazepin-3-yl)benzamide] | < 5.30
14 | O=C1Nc2ccccc2N(c2ccccc2)C[C@@H]1Nc1nnc(-c2nc(C(F)(F)F)sc2N2CCOCC2)o1 [Example 14, (S)-3-((5-(5-morpholino-2-(trifluoromethyl)thiazol-4-yl)-1,3,4-oxadiazol-2-yl)amino)-5-phenyl-1,3,4,5-tetrahydro-2H-benzo[b][1,4]diazepin-2-one] | > 5.70
15 | O=C1Nc2ccccc2N(c2ccccc2)C[C@@H]1Nc1nnc(-c2cn(C3CCCC3)nc2N2CCOCC2)o1 [Example 10] | > 5.70
16 | O=C1Nc2ccccc2N(c2ccccc2)C[C@@H]1Nc1nnc(-c2cccnc2N2CCOCC2)o1 [Example 6] | 5.30 to 5.70
17 | O=C1Nc2ccccc2N(c2ccccc2)C[C@@H]1Nc1nnc(-c2ccc(F)cc2)o1 [Example 11] | < 5.30
18 | O=C1Nc2ccccc2N(c2ccccc2)C[C@@H]1Nc1nnc(-c2nc(C3CC3)sc2N2CCOCC2)o1 [Example 15] | > 5.70
19 | Cc1ccc(-c2nnc(N[C@H]3CN(c4ccccc4)c4ccccc4NC3=O)o2)o1 [Example 9] | < 5.30
20 | O=C1Nc2ccccc2N(c2ccccc2)C(=O)C1Nc1nnc(-c2ccccc2)o1 (centres unmarked) [Example 19] | < 5.30
